From a melting point compilation (Tetko et al.; mined from patent text by program, amines drawn as free bases though some values may be those of a salt)

| SMILES | melting point [°C] |
| --- | --- |
| CCCn1cc(C(=O)OCC)c(=O)c2ccoc21 | 130 |
| Cc1nnc2n1-c1ccc(C#CCN3C(=O)CCc4ccccc43)cc1C(c1ccccc1F)=NC2 | 236 to 239 |
| CCc1noc(C)c1-c1[nH]c2ccccc2c1C(C)=O | 170 to 173 |
| CCSc1nc(N)ccc1[N+](=O)[O-] | 132 |
| COC(=O)c1cc(OC)c(C(=O)OC)cc1OC | 141 to 143 |
| FC(F)(F)c1ccc(C=Cc2nc[nH]n2)cc1 | 141 to 143 |
| CN(NC=C1CSc2ccc(Cl)cc2C1=O)C(=O)OC(C)(C)C | 121 to 124 |
| COC(=O)NN=C(C)c1c[nH]c(-c2ccccc2)n1 | 226 to 227 |
| COCCOCCn1cc(C(=O)NCc2ccc(Cl)cc2)c(=O)c2cc(CO)ccc21 | 161 to 162 |
| COCCNC(N)=Nc1ccccc1N1CCCCC1 | 218 to 220 |
| COC(=O)c1[nH]c2c(Cl)ccc(Cl)c2c1C | 110 to 111 |
| CC(=O)Oc1cccc(C(=O)c2ccccc2)c1OC(C)=O | 81 to 83 |
| COC(=O)C(C#N)c1nc(-c2c(F)cccc2F)cs1 (configuration not stated) | 219 to 224 |
| O=C(c1ccc(CCCCc2ccccc2)cc1)N(O)Cc1ccccc1 | 83.5 to 85 |
| C=CC(=O)NC1Cc2ccc(-c3ccc(=O)[nH]n3)cc2C1 (configuration not stated) | 235 to 237 |
| CNCC1CN(c2c(F)cc3c(=O)c(C(=O)O)cn(C4CC4)c3c2F)CCO1 (configuration not stated) | 257 to 259 |
| Cc1c(C(=O)Nc2ccc(N3CCC(NCCO)CC3)c(C#N)c2)cnn1-c1ccc(C(F)(F)F)cc1 | 202 |
| COc1cc(C=C2COCC(=Cc3cc(OC)c(OC)c(OC)c3)C2=O)cc(OC)c1OC | 187 to 189 |
| CCCc1c(COc2ccc(Cc3nnn(CC(=O)O)n3)cc2)ccc(C(C)=O)c1O | 87 to 90 |
| CCCCOC(=O)C(=O)Nc1nc2ccccc2s1 | 137 to 138 |
| COC(=O)C(NC(=O)N1C2CCC(C2)N1CC(O)C(Cc1ccccc1)NC(=O)C(NOCc1ccccn1)C(C)C)C(C)C (mixture of isomers) | 79 to 84 |
| COc1ccc(C(=O)Nc2ccc(C(C)(C)C(N)=O)cc2)cc1OC | 193 to 195 |
| CCc1cn(C2OC(CNC(=O)C(C)Oc3c(Cl)cc(Cl)c(OC)c3Cl)C(OC(=O)C(NC(=O)OC(C)(C)C)C(C)C)C2F)c(=O)[nH]c1=O (configuration not stated) | 147 to 149 |
| COc1cc2c(cc1OC)C1Cc3ccccc3CC(=O)N1CC2 (configuration not stated) | 195 to 197 |
| O=C(N[C@H]1CC[C@H](CCN2CCC(c3cccc4c3CCO4)CC2)CC1)c1ccc(C(F)(F)F)cc1 | 228 |

| SMILES | melting point [°C] |
| --- | --- |
| COc1ccc(S(=O)(=O)Nc2c(Nc3ccccc3)ncnc2OC)cc1 | 159 to 160 |
| Cn1ccnc1C1(CCCCc2ccc(N3C(=O)c4ccccc4C3=O)cc2)c2ccccc2-c2ccccc21 | 76 to 80 |
| CC(C)(C)c1cc(Cc2nc(S)n[nH]2)cc(C(C)(C)C)c1O | 184 to 185 |
| O=S(=O)(c1ccc(Oc2ccc(Cl)c(Cl)c2)cc1)C(F)(F)F | 77 to 78 |
| CC(C)NC(=O)C(O)C(Cc1ccccc1)NC(=O)OC(C)(C)C (mixture of isomers) | 126 to 145 |
| CC(=O)NCCCn1cc(C2=C(c3cn(C)c4ccccc34)C(=O)NC2=O)c2ccccc21 | 132 to 136 |
| CC1CCc2c(N3CCOCC3)c(F)cc3c(=O)c(C(=O)O)cn1c23 (configuration not stated) | 279 to 280 |
| CC(O)c1ccc(C(C)(C)C)cc1 (single isomer, unassigned; (+)) | 85 |
| Cc1sc(N)nc1-c1ccc(CCN2CCN(c3cccc4ccccc34)CC2)cc1 | 160 to 165 |
| NC(=O)[C@H]1CN(c2cc(F)c(N3CCOCC3)c(F)c2)C(=O)O1 | 181 to 183 |
| CCOc1cnc(C(C)(C)OC(=O)Nc2ccc(-c3ncn(-c4ccc(OC(F)(F)F)cc4)n3)cc2)nc1 | 168 to 171 |
| O=C(O)CCc1cc2nc(C(F)(F)F)ccc2n1S(=O)(=O)c1ccccc1 | 180 |
| Cc1occc1C(=O)N(O)C1CCCCC1 | 108 to 110 |
| COC(=O)c1cc(F)c(N2CCC(NC(C)=O)C2)nc1Nc1ccc(F)cc1F (configuration not stated) | 199 to 200 |
| O=C1N(Cc2ccccn2)c2ccccc2C12COc1ccc3nonc3c12 (configuration not stated) | 180 to 182 |
| COc1cc([C@@H]2SC[C@@H](c3cc(OC)c(O)c(OC)c3)S2)cc(OC)c1O (relative stereo) | 169 to 170 |
| CCSc1nsc(NC(=O)Oc2ccccc2)c1C#N | 223 to 225 |
| O=C(O)CC1(C(=O)OCc2ccccc2)C(=O)N(Cc2ccc(Cl)c(Cl)c2)C(=O)c2cccn21 (configuration not stated) | 134 to 136 |
| OC1(c2ccccc2Cc2ccccc2)CCC2(CC1)OCCO2 | 97 to 98 |
| OCc1nc(-c2ccc3nc(-c4ccc(Cl)cc4)cn3c2)cs1 | 190 to 192 |
| Nc1oc2ccc([N+](=O)[O-])cc2c(=O)c1C=O | 228 to 229 |
| COc1cc(C(=O)NCc2ccc(-c3csc(N)n3)s2)cc(OC)c1OC | 217 |
| C=Cc1ccc(-c2nc(C)c3c(n2)sc2c(OCC)nc(N4CCNCC4)nc23)cc1 | 165 to 166 |
| CCN(CC)C(=O)C(C)Oc1cc(-c2ccccc2)cc2ccccc12 (configuration not stated) | 109 |
| O=c1c2c(Cc3cccc(OC(F)(F)F)c3)n[nH]c2c2cccnc2n1-c1ccccc1 | 253 to 254 |

| SMILES | melting point [°C] |
| --- | --- |
| O=C1CCC(N2C(=O)c3cccc(CNC(=O)c4cc5ccccc5cn4)c3C2=O)C(=O)N1 (configuration not stated) | 198 to 200 |
| CCC(CC)Oc1cc(C)nc2c1CCC(=O)N2c1c(C)cc(C)cc1C | 138 to 140 |
| CC(=O)c1cccc(Oc2ncccc2OCCCc2ccncc2O)c1 | 101 to 102 |
| O=C1C2=C(CCCC2)C(=O)N1c1c(F)cc(F)cc1F | 91 to 92 |
| NS(=O)(=O)c1cc(NC(=O)c2cnn3c(C(F)(F)F)cc(-c4ccc(C(F)(F)F)cc4)nc23)c(Cl)s1 | 275 |
| CS(=O)c1ccccc1C(=O)Nc1ccccc1 (configuration not stated) | 194 to 195 |
| COc1cc(C=O)cc(OC)c1C(C)(C)O | 55 |
| CC(C)(C)OC(=O)NC1CCC(=O)NC1=O (configuration not stated) | 214 to 215 |
| OCC1OC(n2c(Cl)nc3c(NCc4ccccc4)ncnc32)C(O)C1O (configuration not stated) | 90 to 92 |
| COc1ccc(-c2cc(C=O)[nH]c2-c2ccc(OC)cc2)cc1 | 165 to 166 |
| CCCNCC(=O)Nc1ccc2c(c1)C(=O)c1cc(NC(=O)CNCCC)ccc1C2=O | 143 |
| C=C(C)C(=O)OCCc1ccc(N(C)C)cc1 | 42 to 43 |
| Cc1ccc(C)n1C1=CC2=C(CC1)CCc1[nH]c(=O)c(=O)n(OCC(=O)O)c12 | > 260 |
| C[C@@H](c1ccc(F)cc1)N1CCN(c2cc(Nc3ccc4cccnc4c3)ncn2)CC1 | 206 to 207 |
| C=CCNc1c(C(=O)OCC)cnc2cn(C)nc12 | 140 to 143 |
| COc1ccc2c(=O)c(C=O)coc2c1OC(C)=O | 160 to 161 |
| Cn1nc(CNC(=O)c2ccccc2)nc1NCCCOc1cccc(CN2CCCCC2)c1 | 70 |
| O=C(c1ccccc1)c1cccc(Cc2c(O)c3ccc(Cl)cc3[nH]c2=O)c1 | 294 to 295 |
| CSc1nc(-n2cnc([N+](=O)[O-])n2)c2cc(Br)ccc2n1 | 204 |
| CCCCCC(C)C(C)c1cc(O)c2c3c(c(=O)oc2c1)SCC3 (configuration not stated) | 165 to 166 |
| c1ccc(-c2csc(Nc3cc4ccccc4cn3)n2)cc1 | 265 to 267 |
| CSC(C[C@@H]1CC(=O)N1[Si](C)(C)C(C)(C)C)(SC)SC | 61 to 62 |
| CON=C1CN(c2c(F)cc3c(=O)c(C(=O)O)cn(C4CC4)c3c2F)CC12CNC2 | 205 to 207 |
| CC#CCOc1ccc(OCC(=O)OCC)cc1 | 100 to 105 |
| CCCCCCCCCCCCCCCCCCCCOC(=O)Cl | 33 to 34 |

| SMILES | melting point [°C] |
| --- | --- |
| CCOC(=O)C1=C(C)NC(N)=C(C(=O)OCC)C1C (configuration not stated) | 140 |
| Cc1ccc(Cn2[nH]c(N)cc2=O)cc1C(F)(F)F | 103 |
| COc1ccc2c(c1)C(N1CCCC1=O)NN=C2Cc1c(Cl)cncc1Cl (configuration not stated) | 223 to 225 |
| CCNc1nc(-c2ccc(NC(=O)NCc3ccc(N)nc3)cc2)ccc1C(=O)NC | 223 to 226 |
| CCOC(=O)C(=O)Nc1cc(NC=O)ccc1O | > 300 |
| COC(=O)c1nc(-c2ccccc2)c(-c2ccc(=O)n(C(C)C)n2)cc1C#N | 136 to 138 |
| O=C(O)c1cnn2c(C(F)F)cc(-c3ccc(C(F)(F)F)cc3)nc12 | 261 |
| COc1cc2c(cc1Nc1ncc(Cl)c(Nc3cc(C(N)=O)ccc3OC)n1)CCN(C(=O)CN(C)C)CC2 | 226 to 233 |
| C=C1C(OC(C)=O)C(CO)OC1n1ccc(NC(C)=O)nc1=O (configuration not stated) | 174 to 175 |
| CCOC(=O)c1[nH]c(C(=O)OCC)c(C)c1C | 66 to 68 |
| CCOC(=O)COc1ccccc1C(=O)Nc1ccc(Sc2ccccc2-c2nnn[nH]2)cc1 | 97 to 99 |
| Cn1c(=O)[nH]c(=O)c2c1ncn2CC(C)(C)O | 268 to 269 |
| CCC1C(c2cccnc2Cl)=NOC1(C)O (configuration not stated) | 71 |
| CCCCN(CCCC)C(=O)c1cc(C(C)(C)C)c(O)c(C(C)(C)C)c1 | 94 to 95 |
| OC1(c2ccc(F)cc2)CCC2(CC1)OCCO2 | 133 to 135 |
| CS(=O)(=O)c1ccc(-c2cc(CO)nn2CC2CCCCC2)cc1 | 104 |
| Cc1cc(C)c(C2CC(=O)C=C(O)C2)c(C)c1 (configuration not stated) | 165 |
| CN(Cc1sc2c(=O)c(C(=O)NCc3ccc(Cl)cc3)cn(C)c2c1CN)C[C@@H](O)c1ccccn1 | 144 to 148 |
| NC(=O)OCC(Cc1ccccc1)NC(=O)C1CCN(c2c(Cl)cncc2Cl)CC1 (configuration not stated) | 147 to 149 |
| CCCCCCCCCCOc1cc(OCCCCCCCCCC)cc(N(CC(=O)OCc2ccccc2)CC(=O)OCc2ccccc2)c1 | 55 to 57 |
| COc1cc(Oc2nn(C)c(C(F)(F)F)c2Cl)ccc1[N+](=O)[O-] | 71 to 73.5 |
| CC(=O)NCc1cccc(Nc2nccc(-c3sc(N(C)c4cc(Cl)cc(Cl)c4)nc3C)n2)c1 | 213 to 214 |
